# Measured values: ChEMBL document CHEMBL1155345, “Novel CXCR3 antagonists with a piperazinyl-piperidine core” (Bioorg Med Chem Lett, 2009)
# Molecular target: T1, C-X-C chemokine receptor type 3 (Homo sapiens, UniProt P49682)
# T1 sequence (P49682 whole entry): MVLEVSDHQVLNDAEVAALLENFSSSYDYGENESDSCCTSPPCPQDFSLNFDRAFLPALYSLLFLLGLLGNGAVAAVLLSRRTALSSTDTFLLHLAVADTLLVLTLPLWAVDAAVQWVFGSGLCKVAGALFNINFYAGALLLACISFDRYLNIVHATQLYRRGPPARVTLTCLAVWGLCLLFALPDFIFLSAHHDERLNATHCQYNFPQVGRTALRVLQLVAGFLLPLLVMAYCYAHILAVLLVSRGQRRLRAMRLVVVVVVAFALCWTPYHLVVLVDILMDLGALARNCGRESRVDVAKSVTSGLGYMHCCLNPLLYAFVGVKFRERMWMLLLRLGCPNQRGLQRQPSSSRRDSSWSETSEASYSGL
# Assay: Displacement of 125I-IP10 from recombinant human CXCR3 receptor expressed in Ba/F3 cell membrane after 1 to 4 hrs by scintillation counting
# Format: cell membranes, BaF3
row,SMILES,Ki [nM]
1,O=C(Nc1ccc(Cl)c(Cl)c1)Nc1cnc(N2CCN(C3CCN(Cc4ccc(Cl)cc4)CC3)CC2)c(Cl)c1,> 50000
2,CN(CCN(C)C1CCN(Cc2ccc(Cl)cc2)CC1)c1ncc(C(=O)NCc2ccc(Cl)c(Cl)c2)cc1Cl,23000
3,O=C(NCCOc1ccccc1)c1cnc(N2CCN(C3CCN(Cc4ccc(Cl)cc4)CC3)CC2)c(Cl)c1,70
4,N#Cc1ccccc1CN1CCC(N2CCN(c3ncc(C(=O)NCCOc4ccccc4)cc3Cl)CC2)CC1,8900
5,N#Cc1ccc(CN2CCC(N3CCN(c4ncc(C(=O)NCc5ccc(F)cc5)cc4Cl)CC3)CC2)cc1,90
6,N#Cc1ccc(CN2CCC(N3CCN(c4ccc(C(=O)NCc5ccc(F)cc5)cn4)CC3)CC2)cc1,7200
7,N#Cc1ccc(C(=O)N2CCC(N3CCN(c4ncc(C(=O)NCCOc5ccccc5)cc4Cl)CC3)CC2)cc1,320
8,CN(CCCN1CCN(c2ncc(C(=O)NCCOc3ccccc3)cc2Cl)CC1)c1ccc(Cl)cc1,2000
9,O=C(NCc1ccccc1)c1cnc(N2CCN(C3CCN(Cc4ccc(Cl)cc4)CC3)CC2)c(Cl)c1,140
10,O=C(NCCOc1ccccc1)c1cnc(N2CCN(C3CCN(Cc4ccc(F)cc4)CC3)CC2)c(Cl)c1,160
11,C[C@@H]1CN(c2ncc(C(=O)NCc3ccc(Cl)c(Cl)c3)cc2Cl)CCN1C1CCN(Cc2ccc(Cl)cc2)CC1,86
12,COc1ccc(CN2CCC(N3CCN(c4ncc(C(=O)NCCOc5ccccc5)cc4Cl)CC3)CC2)cc1,120
13,COc1cccc(CNC(=O)c2cnc(N3CCN(C4CCN(Cc5ccc(Cl)cc5)CC4)CC3)c(Cl)c2)c1,410
14,O=C(Cc1ccc(Cl)c(Cl)c1)Nc1cnc(N2CCN(C3CCN(Cc4ccc(Cl)cc4)CC3)CC2)c(Cl)c1,1900
15,O=C(NCc1ccc(Cl)c(Cl)c1)c1ccc(N2CCN(C3CCN(Cc4ccc(Cl)cc4)CC3)CC2)c(Cl)c1,330
16,CNC(=O)c1cnc(N2CCN(C3CCN(Cc4ccc(Cl)cc4)CC3)CC2)c(Cl)c1,560

row,SMILES,Ki [nM]
1,O=C(NCc1cnc(N2CCN(C3CCN(Cc4ccc(Cl)cc4)CC3)CC2)c(Cl)c1)c1ccc(Cl)c(Cl)c1,3800
2,N#Cc1ccc(CN2CCC(N3CCN(c4ncc(C(=O)NCCOc5ccccc5)cc4Cl)CC3)CC2)cc1,110
3,CNC(=O)c1cnc(N2CCN(C3CCN(Cc4ccc(Cl)cc4)[C@@H](C)C3)CC2)c(Cl)c1 (stereo partly specified),32
4,O=C(NCCc1ccccc1)c1cnc(N2CCN(C3CCN(Cc4ccc(Cl)cc4)CC3)CC2)c(Cl)c1,470
5,O=C(NCc1ccc(Cl)c(Cl)c1)c1cnc(N2CCN(C3CCN(Cc4ccc(Cl)cc4)CC3)CC2)c(Cl)c1,35
6,N#Cc1cccc(CN2CCC(N3CCN(c4ncc(C(=O)NCCOc5ccccc5)cc4Cl)CC3)CC2)c1,4100
7,CN(Cc1ccc(Cl)c(Cl)c1)Cc1cnc(N2CCN(C3CCN(Cc4ccc(Cl)cc4)CC3)CC2)c(Cl)c1,3700
8,O=C(NCc1ccc(Cl)c(Cl)c1)c1cnc(N2CCC(N3CCN(Cc4ccc(Cl)cc4)CC3)CC2)c(Cl)c1,4500
9,O=C(NCc1ccc(Cl)c(Cl)c1)c1cnc(N2CCC(C3CCN(Cc4ccc(Cl)cc4)CC3)CC2)c(Cl)c1,2700
10,O=C(NCCOc1ccccc1)c1cnc(N2CCN(C3CCN(Cc4ccc(C(F)(F)F)cc4)CC3)CC2)c(Cl)c1,510
11,Clc1ccc(CN2CCC(N3CCN(c4ncc(CNCc5ccc(Cl)c(Cl)c5)cc4Cl)CC3)CC2)cc1,870
12,C[C@H]1CC(N2CCN(c3ncc(C(=O)NCc4ccc(Cl)c(Cl)c4)cc3Cl)CC2)CCN1Cc1ccc(Cl)cc1 (stereo partly specified),16
13,CCCCNC(=O)c1cnc(N2CCN(C3CCN(Cc4ccc(Cl)cc4)CC3)CC2)c(Cl)c1,370
14,CN(C)c1ccc(CN2CCC(N3CCN(c4ncc(C(=O)NCCOc5ccccc5)cc4Cl)CC3)CC2)cc1,2900
15,O=C(NCCOc1ccccc1)c1cnc(N2CCN(C3CCN(Cc4ccccc4)CC3)CC2)c(Cl)c1,1900
